{
  "source": "paper PMC3005334",
  "about": "(Cell, 2010)",
  "key": {"Erg1": {"target": "T1, Erg1 (Saccharomyces cerevisiae, UniProt P32476)", "T1 sequence (P32476 1-496)": "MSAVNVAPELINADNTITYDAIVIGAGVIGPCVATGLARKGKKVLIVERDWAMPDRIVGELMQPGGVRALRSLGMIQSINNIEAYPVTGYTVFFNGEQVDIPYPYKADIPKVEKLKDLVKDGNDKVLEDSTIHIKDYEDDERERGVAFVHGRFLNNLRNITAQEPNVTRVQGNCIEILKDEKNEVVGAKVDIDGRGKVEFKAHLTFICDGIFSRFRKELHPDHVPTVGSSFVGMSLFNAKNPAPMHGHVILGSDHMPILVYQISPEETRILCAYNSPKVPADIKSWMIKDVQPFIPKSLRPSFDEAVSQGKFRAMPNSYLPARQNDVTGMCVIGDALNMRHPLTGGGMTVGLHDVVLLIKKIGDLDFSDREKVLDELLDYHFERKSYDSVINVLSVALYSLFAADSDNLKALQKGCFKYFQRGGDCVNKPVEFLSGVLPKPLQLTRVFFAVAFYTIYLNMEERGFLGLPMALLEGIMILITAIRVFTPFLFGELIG", "type": "binding", "conditions": "in vivo bound, LC-MS"}, "[1]": {"system": "21 ergosterol biosynthetic proteins (Erg proteins)", "conditions": "of 21 Erg enzymes, above the control"}, "Erg3": {"target": "T2, Erg3 (Saccharomyces cerevisiae, UniProt P32353)", "T2 sequence (P32353 1-365)": "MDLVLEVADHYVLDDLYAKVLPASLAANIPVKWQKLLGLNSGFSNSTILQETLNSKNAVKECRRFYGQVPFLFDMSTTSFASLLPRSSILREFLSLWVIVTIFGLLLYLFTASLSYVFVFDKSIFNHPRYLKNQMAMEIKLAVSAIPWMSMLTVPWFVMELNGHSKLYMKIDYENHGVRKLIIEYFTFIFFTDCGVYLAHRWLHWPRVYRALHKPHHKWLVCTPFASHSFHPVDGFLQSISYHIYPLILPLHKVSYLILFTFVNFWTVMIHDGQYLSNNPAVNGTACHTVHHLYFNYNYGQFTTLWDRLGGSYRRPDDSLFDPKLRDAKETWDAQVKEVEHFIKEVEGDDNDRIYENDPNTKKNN", "type": "binding", "conditions": "in vivo bound, LC-MS; known substrate"}, "ypk1Δ cells [2]": {"system": "ypk1Δ cells", "conditions": "ref Gupta et al., 2003; Hillenmeyer et al., 2008; cited from earlier work"}, "ypk1Δ cells [3]": {"system": "ypk1Δ cells", "test": "Growth of kinase deletion strain in the presence of ergosterol inhibitor", "type": "cell-based, Saccharomyces cerevisiae", "conditions": "different concentrations of inhibitor, cell density"}},
  "data": [
    {"smiles": "CC(C)=CCC[C@@H](C)[C@H]1CC[C@H]2C3=C(CC[C@]12C)[C@@]1(C)CCC(=O)C[C@@H]1CC3", "note": "[5α-cholesta-8,24-dien-3-one]", "values": [
      {"measurement": "association with Erg1 among the 21 Erg proteins", "setting": "Erg1", "value": "specifically associated only with Erg1"}
    ]},
    {"smiles": "CC(C)=CCC/C(C)=C/CC/C(C)=C/CC/C=C(\\C)CC/C=C(\\C)CC[C@@H]1OC1(C)C", "note": "[(S)-2,3-epoxysqualene]", "values": [
      {"measurement": "association with Erg1 among the 21 Erg proteins", "setting": "Erg1", "value": "specifically associated only with Erg1"}
    ]},
    {"smiles": "C=C(CC[C@@H](C)[C@H]1CC[C@H]2C3=CC[C@H]4C[C@@H](O)CC[C@]4(C)[C@H]3CC[C@]12C)C(C)C", "note": "[episterol]", "values": [
      {"measurement": "number of Erg proteins the metabolite co-purified with", "setting": "[1]", "value": 3},
      {"measurement": "binding to Erg3", "setting": "Erg3", "value": "bound"}
    ]},
    {"smiles": "CC(C)=CCC[C@@H](C)[C@H]1CC[C@@]2(C)C3=C(CC[C@]12C)[C@@]1(C)CC[C@H](O)C(C)(C)[C@@H]1CC3", "note": "[lanosterol]", "values": [
      {"measurement": "number of Erg proteins the metabolite co-purified with", "setting": "[1]", "value": 5}
    ]},
    {"smiles": "C[C@@H]1[C@H](O)[C@@H](C)/C=C/C=C/CC/C=C/C=C/C=C/C=C/C(O[C@H]2O[C@H](C)[C@@H](O)[C@H](N)[C@@H]2O)CC2O[C@](O)(CC(O)C(O)CCC(O)CC(O)CC(O)CC(=O)O[C@H]1C)CC(O)C2C(=O)O", "note": "(stereo partly shown) [nystatin]", "values": [
      {"measurement": "sensitivity of yeast strains lacking Ypk1", "setting": "ypk1Δ cells [2]", "value": "sensitive"},
      {"measurement": "growth of ypk1Δ cells", "setting": "ypk1Δ cells [3]", "value": "sensitive"}
    ]}
  ]
}
